Earlier results as cited in article PMC11996792, “First-in-human study of CPL’116 – a dual JAK/ROCK inhibitor – in healthy subjects” (Frontiers in Pharmacology, 2025).
Like-named read-outs stand apart in the source and are kept apart here.

CCS(=O)(=O)N1CC(CC#N)(n2cc(-c3ncnc4[nH]ccc34)cn2)C1 [baricitinib]
mean half-life (ref Shi et al., 2014): 8.5 h | mean half-life (ref Zhao et al., 2020): 5.8 to 7.4 h

CC(C)NC(=O)COc1cccc(-c2nc(Nc3ccc4[nH]ncc4c3)c3ccccc3n2)c1 [belumosudil]
mean half-life (ref Schueller et al., 2024): 7.5 to 10.9 h

O=S(=O)(c1cccc2c(O)nccc12)N1CCCNCC1 [hydroxyfasudil]
mean half-life (ref Wolff et al., 2024): 5.5 to 5.7 h

C[C@@H]1CCN(C(=O)CC#N)C[C@@H]1N(C)c1ncnc2[nH]ccc12 [tofacitinib]
mean half-life (extended-release formulation, ref Lamba et al., 2016): 5.9 h | mean half-life (immediate formulation, ref Lamba et al., 2016): 3.2 h

CC[C@@H]1CN(C(=O)NCC(F)(F)F)C[C@@H]1c1cnc2cnc3[nH]ccc3n12 [upadacitinib]
mean half-life (ref Mohamed et al., 2016): 5.9 to 14.5 h
